From US20100298141A1, “SUBSTITUTED PYRIDINE N-OXIDE HERBICIDES” (E. I. DU PONT DE NEMOURS AND COMPANY, priority 2007, published 2010)

Experiments:
barnyardgrass [1] = test: Test A pre-/postemergence greenhouse test; assay type: in vivo, Echinochloa crus-galli; details: for Plant response rating, Barnyardgrass: 0 to 100 scale where 0 is no effect and 100 is complete control; for Barnyardgrass plant response rating: 0 to 100 scale
How it was run: (§1)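 Herbicidal effect is a visual injury score given about ten days post-treatment by comparison with untreated controls. Preemergence plots received a directed spray onto sown loam–sand soil; postemergence plants, at the one- to two-leaf stage and 2–10 cm tall, were sprayed at the same time.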

crabgrass [2] = test: Test A pre-/postemergence greenhouse test; assay type: in vivo, Digitaria sanguinalis; details: for Plant response rating, Crabgrass, Large: 0 to 100 scale where 0 is no effect and 100 is complete control; for Crabgrass, Large plant response rating: 0 to 100 scale
How it was run: as §1

velvetleaf = test: Test A pre-/postemergence greenhouse test; assay type: in vivo, Abutilon theophrasti; details: for Plant response rating, Velvetleaf: 0 to 100 scale where 0 is no effect and 100 is complete control; for Velvetleaf plant response rating: 0 to 100 scale
How it was run: as §1

corn [3] = test: Test A pre-/postemergence greenhouse test; assay type: in vivo, Zea mays; details: for Plant response rating, Corn: 0 to 100 scale where 0 is no effect and 100 is complete control; for Corn plant response rating: 0 to 100 scale
How it was run: as §1

green foxtail = test: Test C pre-/postemergence test; assay type: in vivo, Setaria viridis
How it was run: (§2)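 Seeds were planted and treated preemergence with test chemical in a non-phytotoxic solvent mixture containing surfactant. Postemergence applications of the same formulation went onto plants 2 to 18 cm tall (1- to 4-leaf stage). A dash marks no test result.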

Italian ryegrass = test: Test C pre-/postemergence test; assay type: in vivo, Lolium multiflorum; details: for Ryegrass, Italian plant response rating: preemergence, scale 0 (no effect) to 100 (complete control)
How it was run: as §2

bermudagrass = test: Test C pre-/postemergence test; assay type: in vivo, Cynodon dactylon
How it was run: as §2

corn [4] = test: Test C pre-/postemergence test; assay type: in vivo, Zea mays
How it was run: as §2

crabgrass [5] = test: Test C pre-/postemergence test; assay type: in vivo, Digitaria sanguinalis
How it was run: as §2

Goosegrass = test: Test C pre-/postemergence test; assay type: in vivo, Eleusin indica
How it was run: as §2

johnsongrass = test: Test C pre-/postemergence test; assay type: in vivo, Sorghum halepense
How it was run: as §2

yellow nutsedge = test: Test C pre-/postemergence test; assay type: in vivo, Cyperus esculentus
How it was run: as §2

pigweed = test: Test C pre-/postemergence test; assay type: in vivo, Amaranthus retroflexus; details: for Plant response rating (0 to 100), Pigweed / Plant response rating, Pigweed: Postemergence; for Plant response rating, Pigweed: scale 0 to 100, 0 no effect, 100 complete control
How it was run: as §2

soybean = test: Test C pre-/postemergence test; assay type: in vivo, Glycine max
How it was run: as §2

umbrella sedge = test: Test C flooded paddy test; assay type: in vivo, Cyperus difformis; details: Flood
How it was run: (§3)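 In-water treatment: compound dosed into 3 cm flood over soil, water level unchanged throughout. Controls run alongside; visual assessment at day 13–15.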

duck salad = test: Test C flooded paddy test; assay type: in vivo, Heteranthera limosa; details: Flood
How it was run: as §3

barnyardgrass [6] = test: Test C flooded paddy test; assay type: in vivo, Echinochloa crus-galli; details: Flood
How it was run: as §3

[7] = Postemergence, 500 g ai/ha, 0 is no effect, 100 is complete control
[8] = Preemergence, 125 g ai/ha, 0 no effect, 100 complete control
[9] = 62 g ai/ha, Preemergence, scale 0 to 100
[10] = 125 g ai/ha, preemergence, scale 0 (no effect) to 100 (complete control)
[11] = Postemergence, 125 g ai/ha, scale 0 to 100, 0 no effect, 100 complete control
[12] = Postemergence, 250 g ai/ha, scale 0 to 100, 0 no effect, 100 complete control
[13] = Preemergence, 31 g ai/ha, scale 0 to 100 (0 no effect, 100 complete control)
[14] = preemergence, 250 g ai/ha, scale 0 (no effect) to 100 (complete control)
[15] = 62 g ai/ha, scale 0 to 100 (0 no effect, 100 complete control)
[16] = 250 g ai/ha, scale 0 to 100, 0 no effect, 100 complete control, 13 to 15 days

Structure (SMILES): CC(Oc1c(CS(=O)(=O)c2cccc[n+]2[O-])c(C(F)(F)F)nn1C)C(F)(F)F (stereo not drawn) [Compound 82]
- Plant response rating, Barnyardgrass (barnyardgrass [1]; Postemergence, 125 g ai/ha): 70
- Barnyardgrass plant response rating (barnyardgrass [1]; [7]): 80
- Barnyardgrass plant response rating (barnyardgrass [1]; [8]): 90
- Plant response rating, Barnyardgrass (barnyardgrass [1]; Preemergence, 500 g ai/ha): 100
- Plant response rating, Crabgrass, Large (crabgrass [2]; Postemergence, 125 g ai/ha): 80
- Crabgrass, Large plant response rating (crabgrass [2]; [7]): 90
- Crabgrass, Large plant response rating (crabgrass [2]; [8]): 80
- Plant response rating, Crabgrass, Large (crabgrass [2]; Preemergence, 500 g ai/ha): 100
- Plant response rating, Velvetleaf (velvetleaf; Postemergence, 125 g ai/ha): 10
- Velvetleaf plant response rating (velvetleaf; [7]): 80
- Velvetleaf plant response rating (velvetleaf; [8]): 60
- Plant response rating, Velvetleaf (velvetleaf; Preemergence, 500 g ai/ha): 100
- Plant response rating, Corn (corn [3]; Postemergence, 125 g ai/ha): 0
- Corn plant response rating (corn [3]; [7]): 20
- Corn plant response rating (corn [3]; [8]): 0
- Plant response rating, Corn (corn [3]; Preemergence, 500 g ai/ha): 50
- Foxtail, Green plant response rating (green foxtail; [9]): 95
- Foxtail, Green plant response rating (green foxtail; [10]): 98
- Plant response rating (0 to 100), Foxtail, Green (green foxtail; Postemergence, 31 g ai/ha): 0
- Plant response rating (0 to 100), Foxtail, Green (green foxtail; Postemergence, 62 g ai/ha): 40
- Plant response rating, Foxtail, Green (green foxtail; [11]): 60
- Plant response rating, Foxtail, Green (green foxtail; [12]): 80
- Plant response rating, Foxtail, Green (green foxtail; [13]): 95
- Foxtail, Green plant response rating (green foxtail; [14]): 100
- Ryegrass, Italian plant response rating (Italian ryegrass; 125 g ai/ha): 80
- Plant response rating (0 to 100), Ryegrass, Italian (Italian ryegrass; Postemergence, 31 g ai/ha): 0
- Plant response rating (0 to 100), Ryegrass, Italian (Italian ryegrass; Postemergence, 62 g ai/ha): 0
- Plant response rating, Ryegrass, Italian (Italian ryegrass; [11]): 85
- Plant response rating, Ryegrass, Italian (Italian ryegrass; [12]): 90
- Plant response rating, Ryegrass, Italian (Italian ryegrass; [13]): 75
- Ryegrass, Italian plant response rating (Italian ryegrass; 250 g ai/ha): 100
- Bermudagrass plant response rating (bermudagrass; 62 g ai/ha, Preemergence, scale 0 to 100 (0 no effect, 100 complete control)): 100
- Bermudagrass plant response rating (bermudagrass; [10]): 100
- Plant response rating (0 to 100), Bermudagrass (bermudagrass; Postemergence, 31 g ai/ha): 0
- Plant response rating (0 to 100), Bermudagrass (bermudagrass; Postemergence, 62 g ai/ha): 0
- Plant response rating, Bermudagrass (bermudagrass; [11]): 0
- Plant response rating, Bermudagrass (bermudagrass; [12]): 0
- Plant response rating, Bermudagrass (bermudagrass; [13]): 100
- Bermudagrass plant response rating (bermudagrass; [14]): 100
- Corn plant response rating (corn [4]; [9]): 40
- Corn plant response rating (corn [4]; [10]): 70
- Plant response rating (0 to 100), Corn (corn [4]; Postemergence, 31 g ai/ha): 0
- Plant response rating (0 to 100), Corn (corn [4]; Postemergence, 62 g ai/ha): 0
- Plant response rating, Corn (corn [4]; [11]): 0
- Plant response rating, Corn (corn [4]; [12]): 0
- Plant response rating, Corn (corn [4]; [13]): 40
- Corn plant response rating (corn [4]; [14]): 80
- Crabgrass, Large plant response rating (crabgrass [5]; [9]): 85
- Crabgrass, Large plant response rating (crabgrass [5]; [10]): 98
- Plant response rating (0 to 100), Crabgrass, Large (crabgrass [5]; Postemergence, 31 g ai/ha): 0
- Plant response rating (0 to 100), Crabgrass, Large (crabgrass [5]; Postemergence, 62 g ai/ha): 0
- Plant response rating, Crabgrass, Large (crabgrass [5]; [11]): 0
- Plant response rating, Crabgrass, Large (crabgrass [5]; [12]): 10
- Plant response rating, Crabgrass, Large (crabgrass [5]; [13]): 85
- Crabgrass, Large plant response rating (crabgrass [5]; [14]): 100
- Goosegrass plant response rating (Goosegrass; [9]): 100
- Goosegrass plant response rating (Goosegrass; [10]): 100
- Plant response rating (0 to 100), Goosegrass (Goosegrass; Postemergence, 31 g ai/ha): 0
- Plant response rating (0 to 100), Goosegrass (Goosegrass; Postemergence, 62 g ai/ha): 0
- Plant response rating, Goosegrass (Goosegrass; [11]): 10
- Plant response rating, Goosegrass (Goosegrass; [12]): 40
- Plant response rating, Goosegrass (Goosegrass; [13]): 90
- Goosegrass plant response rating (Goosegrass; [14]): 100
- Johnsongrass plant response rating (johnsongrass; [9]): 80
- Johnsongrass plant response rating (johnsongrass; [10]): 80
- Plant response rating (0 to 100), Johnsongrass (johnsongrass; Postemergence, 31 g ai/ha): 0
- Plant response rating (0 to 100), Johnsongrass (johnsongrass; Postemergence, 62 g ai/ha): 0
- Plant response rating, Johnsongrass (johnsongrass; [11]): 10
- Plant response rating, Johnsongrass (johnsongrass; [12]): 40
- Plant response rating, Johnsongrass (johnsongrass; [13]): 40
- Johnsongrass plant response rating (johnsongrass; [14]): 100
- Nutsedge, Yellow plant response rating (yellow nutsedge; [9]): 60
- Nutsedge, Yellow plant response rating (yellow nutsedge; [10]): 75
- Plant response rating (0 to 100), Nutsedge, Yellow (yellow nutsedge; Postemergence, 31 g ai/ha): 0
- Plant response rating (0 to 100), Nutsedge, Yellow (yellow nutsedge; Postemergence, 62 g ai/ha): 0
- Plant response rating, Nutsedge, Yellow (yellow nutsedge; [11]): 0
- Plant response rating, Nutsedge, Yellow (yellow nutsedge; [12]): 0
- Plant response rating, Nutsedge, Yellow (yellow nutsedge; [13]): 40
- Nutsedge, Yellow plant response rating (yellow nutsedge; [14]): 100
- Pigweed plant response rating (pigweed; [9]): 85
- Pigweed plant response rating (pigweed; [10]): 100
- Plant response rating (0 to 100), Pigweed (pigweed; 31 g ai/ha): 0
- Plant response rating (0 to 100), Pigweed (pigweed; 62 g ai/ha): 0
- Plant response rating, Pigweed (pigweed; 125 g ai/ha): 0
- Plant response rating, Pigweed (pigweed; 250 g ai/ha): 10
- Pigweed plant response rating (pigweed; [14]): 100
- Soybean plant response rating (soybean; [9]): 30
- Plant response rating (0 to 100), Soybean (soybean; Postemergence, 31 g ai/ha): 0
- Plant response rating (0 to 100), Soybean (soybean; Postemergence, 62 g ai/ha): 0
- Plant response rating, Soybean (soybean; [11]): 0
- Plant response rating, Soybean (soybean; [12]): 20
- Plant response rating, Soybean (soybean; [13]): 0
- Soybean plant response rating (soybean; [14]): 70
- Plant response rating, Sedge, Umbrella (umbrella sedge; [15]): 100
- Plant response rating, Sedge, Umbrella (umbrella sedge; [16]): 100
- Plant response rating, Ducksalad (duck salad; [15]): 60
- Plant response rating, Ducksalad (duck salad; [16]): 80
- Plant response rating, Barnyardgrass (barnyardgrass [6]; [15]): 0
- Plant response rating, Barnyardgrass (barnyardgrass [6]; [16]): 80
